Test results: patent US7982042B2, “Thiozanthene derivatives as delta-opioid modulators” (priority 2003, dated 2011)

Legend:
[1] = molecular target: T1, human delta opioid receptor (Homo sapiens, UniProt P41143); assay: [35S]GTPγS binding assay in CHO-hδ cell membranes; type: biochemical; conditions: hDOR GTPγS EC50, human delta opioid receptor GTPγS functional assay
T1 construct: purchased Receptor Biology, Inc. (Baltimore, Md.); host or cells: CHO cells expressing the human delta receptor (membranes)
T1 sequence (P41143 whole entry): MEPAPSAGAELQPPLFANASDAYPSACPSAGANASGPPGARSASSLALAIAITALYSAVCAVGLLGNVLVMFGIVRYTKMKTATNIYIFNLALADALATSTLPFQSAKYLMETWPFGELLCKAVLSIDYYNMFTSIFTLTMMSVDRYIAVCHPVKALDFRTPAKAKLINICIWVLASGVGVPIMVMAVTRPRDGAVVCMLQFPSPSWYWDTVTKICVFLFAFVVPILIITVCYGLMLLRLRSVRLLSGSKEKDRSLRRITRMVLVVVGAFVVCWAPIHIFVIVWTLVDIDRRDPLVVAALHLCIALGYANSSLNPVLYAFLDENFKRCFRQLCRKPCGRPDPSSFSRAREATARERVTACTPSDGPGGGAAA

[2] = system: mice; assay: Mouse Abdominal Irritant Test (MAIT); type: in vivo; conditions: @ 30 (dose printed in the cell)
Procedure: The procedure used was that described by Collier et al. (1968), with minor modifications. Thirty minutes after the administration of test drug, the animals received an i.p. injection of 5.5 mg/kg of acetylcholine bromide. The mice were then placed into large glass animal jars and were continuously observed for the first occurrence of a characteristic behavioral response (twisting and elongation of the body which extends throughout the hindlimbs) within the specified observation period of 10 minutes. […] Data % of Basal=(stimulate−non-specific)*100/(basal−non-specific). EC50 value values are calculated using a Prism program.

[3] = molecular target: T2, Rat brain mu opioid receptor (Rattus norvegicus, UniProt P33535); assay: Rat brain mu opioid receptor binding assay ([3H]DAMGO); conditions: rMOR Ki
T2 construct: from tissue; host or cells: forebrain of male Sprague Dawley rats
T2 sequence (P33535 whole entry): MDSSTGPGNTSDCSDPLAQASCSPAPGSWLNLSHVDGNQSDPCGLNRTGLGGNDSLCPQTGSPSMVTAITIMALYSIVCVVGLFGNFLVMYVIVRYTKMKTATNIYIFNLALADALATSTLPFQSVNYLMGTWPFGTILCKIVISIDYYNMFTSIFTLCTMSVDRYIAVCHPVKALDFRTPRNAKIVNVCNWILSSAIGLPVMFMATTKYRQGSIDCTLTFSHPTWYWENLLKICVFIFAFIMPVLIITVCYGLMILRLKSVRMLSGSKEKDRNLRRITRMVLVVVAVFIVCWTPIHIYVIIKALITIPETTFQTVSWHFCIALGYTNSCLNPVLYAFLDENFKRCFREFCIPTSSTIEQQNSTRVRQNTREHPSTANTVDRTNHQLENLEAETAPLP

[4] = molecular target: T3, human mu opioid receptor (Homo sapiens, UniProt P35372); assay: [35S]GTPγS binding assay in CHO-hμ cell membranes; type: biochemical; conditions: inhibition relative to 1 uM DAMGO, read-out: hMOR GTPγS % I @10 μM
T3 construct: purchased Receptor Biology, Inc. (Baltimore, Md.); host or cells: CHO cells expressing the human mu receptor (membranes)
T3 sequence (P35372 whole entry): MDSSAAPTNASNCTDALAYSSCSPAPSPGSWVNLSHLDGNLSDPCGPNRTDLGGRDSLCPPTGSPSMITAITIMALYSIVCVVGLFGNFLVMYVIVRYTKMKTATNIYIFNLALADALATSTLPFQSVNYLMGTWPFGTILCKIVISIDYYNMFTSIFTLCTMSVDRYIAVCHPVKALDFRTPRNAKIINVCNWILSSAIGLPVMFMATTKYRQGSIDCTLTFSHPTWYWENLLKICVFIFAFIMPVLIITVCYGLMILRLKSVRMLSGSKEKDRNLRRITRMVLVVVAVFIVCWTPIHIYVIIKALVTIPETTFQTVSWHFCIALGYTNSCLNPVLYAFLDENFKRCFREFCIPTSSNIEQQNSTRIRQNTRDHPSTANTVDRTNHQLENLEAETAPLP
Procedure: CHO-hμ cell membranes are purchased from Receptor Biology, Inc. (Baltimore, Md.). About 10 mg/ml of membrane protein is suspended in 10 mM TRIS-HC pH 7.2, 2 mM EDTA, 10% sucrose.
Membranes are maintained at 4-8° C. 1 ml of membranes is added into 15 ml cold binding assay buffer. The assay buffer contains 50 mM HEPES, pH 7.6, 5 mM MgCl2, 100 mM NaCl, 1 mM DTT and 1 mM EDTA. The membrane suspension is homogenized with a Polytron 2 times and centrifuged at 3000 rpm for 10 min. The supernatant is then centrifuged at 18,000 rpm for 20 min. The pellet is saved in a tube and 10 ml assay buffer is added to the tube. The pellet and buffer are mixed with a Polytron.
The pellet membranes (20 μg/ml) are preincubated with SPA (10 mg/ml) at 25 C′ for 45 min in the assay buffer. The SPA (5 mg/ml) coupled with membranes (10 μg/ml) is then incubated with 0.5 nM [^35S]GTPgS in the same HEPES buffer containing 50 μM GDP in total volume of 200 μl. Increasing concentrations of receptor agonists are used to stimulate [^35S]GTPgS binding. The basal binding is tested in the absence of agonists and non-specific binding is tested in the present 10 μM unlabeled GTPγS. The data are analyzed on a Top counter.
% of Basal=(stimulate−non-specific)*100/(basal−non specific). % inhibition value values are calculated using a formula, % Inhibition=(% Basal of 1 uM DAMGO−% Basal of compound)*100/(% Basal of 1 uM DAMGO−100)

[5] = molecular target: T4, Rat brain delta opioid receptor (Rattus norvegicus, UniProt P33533); assay: Rat brain delta opioid receptor binding; conditions: rDOR Ki
T4 construct: from tissue; host or cells: rat brain
T4 sequence (P33533 whole entry): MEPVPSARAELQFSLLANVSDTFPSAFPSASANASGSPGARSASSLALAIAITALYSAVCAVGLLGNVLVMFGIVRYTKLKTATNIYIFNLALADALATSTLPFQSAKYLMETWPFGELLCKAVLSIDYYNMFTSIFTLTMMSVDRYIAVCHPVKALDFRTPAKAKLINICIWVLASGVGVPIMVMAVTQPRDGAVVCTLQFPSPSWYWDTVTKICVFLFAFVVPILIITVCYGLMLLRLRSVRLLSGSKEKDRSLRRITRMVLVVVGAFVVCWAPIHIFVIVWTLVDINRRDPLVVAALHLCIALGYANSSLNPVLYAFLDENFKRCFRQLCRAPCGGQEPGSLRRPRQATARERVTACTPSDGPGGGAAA

CCN(CC)C(=O)c1ccc2c(c1)Oc1ccccc1C2=C1CC2CCC(C1)N2Cc1ccoc1 [Compound 25, 9-(8-Furan-3-ylmethyl-8-aza-bicyclo[3.2.1]oct-3-ylidene)-9H-xanthene-3-carboxylic acid diethylamide]
EC50 [1]: 1.39 nM | MAIT % I [2]: 30(@ 30) % | Ki [3]: 879 nM | inhibition at 10 µM [4]: 74% | Ki [5]: 0.01 nM
